pIC50: −log10 of the molar value. Activity calls are given as the source filed them. No cut-off for these calls is given here.
Columns and labels:
A549 [1] = test: Cytotoxicity against human A549 cells assessed as cell growth inhibition at 10 uM incubated for 48 hrs by MTT assay relative to control; format: functional
A549 [2] = test: Cytotoxicity against human A549 cells assessed as cell growth inhibition incubated for 48 hrs by MTT assay; format: functional, cell-based; conditions: A549, 48 h
A549 [3] = test: Induction of cell cycle arrest in human A549 cells assessed as accumulation at G2/M phase at 10 uM incubated for 48 hrs by PI staining based flow cytometry analysis; format: functional

O=C(c1ccccc1Cl)c1cccc2c3ccccc3n(-c3ncccn3)c12
inhibition at 10 µM (A549 [1]): 50%
pIC50 (A549 [2]): 5.16
Activity (A549 [3]): Active

O=C(c1ccc(I)cc1)c1cccc2c3ccccc3n(-c3ncccn3)c12
pIC50 (A549 [2]): 4.90
Activity (A549 [3]): Active

CC(C)(C)OC(=O)c1cccc2c3cc(Cl)ccc3n(-c3ncccn3)c12
Activity (A549 [3]): Active

Cc1ccc(C(=O)c2cccc3c4ccccc4n(-c4ncccn4)c23)cc1
inhibition at 10 µM (A549 [1]): 50%
pIC50 (A549 [2]): 5.00
Activity (A549 [3]): Active

COc1cccc(C(=O)c2cccc3c4ccccc4n(-c4ncccn4)c23)c1
inhibition at 10 µM (A549 [1]): 50%
pIC50 (A549 [2]): 5.62
Activity (A549 [3]): Active
